Assay results as given in patent publication US5334600A, “Isoquinolyl substituted hydroxylamine derivatives” (Ciba-Geigy Corporation, priority 1993, dated 1994).

Legend:
5-lipoxygenase [1] = experiment: Ex vivo inhibition of A-23187-stimulated LTB4 formation in whole blood after oral administration; conditions: dose of about 1.0 mg/kg p.o. to the dog
Protocol: Furthermore, the inhibition of 5-lipoxygenase is determined after oral or i.v. administration to rats or dogs by measuring ex vivo in whole blood the decrease of A-23187-stimulated LTB4 formation as compared to non-treated control animals.

5-lipoxygenase [2] = biological target: T1, 5-lipoxygenase (Cavia porcellus, UniProt A0A286X958); experiment: Inhibition of 5-HETE and LTB4 synthesis in A-23187-stimulated guinea pig polymorphonuclear leukocytes; type: cell-based; conditions: read-out: IC50, inhibition of the formation of 5-HETE and leukotriene B4 (LTB4)
T1 construct: A-23187-stimulated guinea pig polymorphonuclear leukocytes; endogenous in cells; host or cells: guinea pig polymorphonuclear leukocytes
T1 sequence (A0A286X958 1-674): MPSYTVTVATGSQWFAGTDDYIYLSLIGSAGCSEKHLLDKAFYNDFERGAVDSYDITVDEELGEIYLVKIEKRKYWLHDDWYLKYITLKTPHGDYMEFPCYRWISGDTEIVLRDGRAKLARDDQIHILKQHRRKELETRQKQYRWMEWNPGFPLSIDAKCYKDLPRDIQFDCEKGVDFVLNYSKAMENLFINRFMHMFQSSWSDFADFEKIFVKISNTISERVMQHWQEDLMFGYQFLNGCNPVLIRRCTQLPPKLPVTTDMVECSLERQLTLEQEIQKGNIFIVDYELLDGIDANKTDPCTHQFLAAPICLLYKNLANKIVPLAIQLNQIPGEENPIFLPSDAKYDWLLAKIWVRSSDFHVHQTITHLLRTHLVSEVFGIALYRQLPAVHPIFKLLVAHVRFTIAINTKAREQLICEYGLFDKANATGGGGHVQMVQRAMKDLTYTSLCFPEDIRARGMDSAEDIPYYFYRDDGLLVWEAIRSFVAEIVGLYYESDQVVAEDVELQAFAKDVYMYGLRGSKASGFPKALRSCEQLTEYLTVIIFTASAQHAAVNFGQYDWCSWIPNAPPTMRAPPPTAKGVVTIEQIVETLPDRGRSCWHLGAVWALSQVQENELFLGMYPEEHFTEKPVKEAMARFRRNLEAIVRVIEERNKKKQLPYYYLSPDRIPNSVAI
Protocol: 5-Lipoxygenase inhibition is determined e.g. by measuring the percent inhibition of the synthesis of 5-HETE [(5S)-5-hydroxy-6,8,11,14-eicosa-tetraenoic acid] and leukotriene B4 (LTB4, 5,12-dihydroxy-6,8, 10, 14-eicosatetraenoic acid) in A-23187-stimulated guinea pig polymorphonuclear leukocytes, essentially according to radiometric thin-layer chromatographic assays described by Walker and Dawson (J. Pharm. Pharmacol. 31: 778, 1979) and Jakschik and Lee (Nature 287: 51, 1980) to measure the formation of 5-HETE and LTB4 -like products from ^14 C-arachidonic acid. IC50 values are determined graphically as the concentration of test compound at which the synthesis of 5-HETE and LTB4 -like products is reduced to 50 % of their respective control values.

Q: With NC(=O)N(O)CCOc1ccc2c(c1)CCN(CCCc1ccccc1)C2=O [1(f), 2-(3-phenylpropyl)-6-[2-(N-aminocarbonyl-N-hydroxyamino)ethoxy]-1-oxo-1,2,3,4-tetrahydroisoquinoline] as the compound, how does the “inhibition of LTB4 formation as determined ex vivo” value (5-lipoxygenase [1]) read?
A: Its value is “significant inhibition”.

Q: What about the IC50 (5-lipoxygenase [2]) of the same compound?
A: Its IC50 is about 500 nM.
